Here are results for 23 compounds from ChEMBL document CHEMBL1155385, “The identification of a selective dopamine D2 partial agonist, D3 antagonist displaying high levels of brain exposure” (Bioorg Med Chem Lett, 2010).

For data set [1], the target named is D(2) dopamine receptor (Homo sapiens, UniProt P14416). The experiment in a line: Partial agonistic activity at human dopamine D2 receptor expressed in CHO cells by assay [35S]GTPgamma assay with scintillation proximity affinity assay. It is filed as functional, cell-based. (SPA uses beads or plates that emit light when radiolabelled molecules are held near them.)

The target in data set [2] is D(3) dopamine receptor (Homo sapiens, UniProt P35462). The experiment in a line: Antagonist activity at human dopamine D3 receptor expressed in CHO cells assessed as inhibition of quinperol-induced [35S]GTPgamma binding by scintillation proximity affinity assay. It counts as functional, cell-based.
A short description of data set [3]: Solubility of the compound. It is filed as physicochemical.
A short description of data set [4]: Lipophilicity, log D at pH 7.4. It is filed as physicochemical. Conditions: buffer.
For data set [5], the system named is Liver microsomes. Kind of data set: Intrinsic clearance in rat liver microsomes. It is filed as ADME, Microsome. On the technique in general: Microsomes from liver hold many membrane-bound enzymes, among them those of drug oxidation.
Data set [6] can be described thus: Intrinsic clearance in human liver microsomes. It is filed as ADME, Microsome.
For data set [7], the target named is Cytochrome P450 2D6 (Homo sapiens, UniProt P10635). Kind of data set: Inhibition of human recombinant CYP2D6 by spectrofluorimetry. It counts as ADME.
Data set [8] has as its target T1, 5-hydroxytryptamine receptor 1A (Homo sapiens, UniProt P08908).
T1 sequence (P08908 whole entry): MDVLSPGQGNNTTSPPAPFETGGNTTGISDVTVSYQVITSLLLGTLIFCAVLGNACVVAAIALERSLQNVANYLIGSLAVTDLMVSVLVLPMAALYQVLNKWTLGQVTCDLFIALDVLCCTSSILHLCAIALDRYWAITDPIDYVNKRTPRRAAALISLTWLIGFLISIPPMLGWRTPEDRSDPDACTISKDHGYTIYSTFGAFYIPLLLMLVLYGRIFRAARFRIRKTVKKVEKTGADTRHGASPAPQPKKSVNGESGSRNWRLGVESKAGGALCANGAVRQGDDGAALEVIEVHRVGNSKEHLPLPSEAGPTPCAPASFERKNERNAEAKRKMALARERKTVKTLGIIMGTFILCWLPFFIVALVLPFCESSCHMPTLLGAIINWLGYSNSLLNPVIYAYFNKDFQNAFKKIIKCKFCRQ
Kind of data set: Binding affinity to 5HT1A receptor.

In data set [9] the target is 5-hydroxytryptamine receptor 1D (Homo sapiens, UniProt P28221). The experiment in a line: Binding affinity to 5HT1D receptor.
For data set [10], the target named is 5-hydroxytryptamine receptor 2A (Homo sapiens, UniProt P28223). Kind of data set: Activity at 5HT2A receptor.
Data set [11] deals with T2, Alpha-1B adrenergic receptor (Homo sapiens, UniProt P35368).
T2 sequence (P35368 whole entry): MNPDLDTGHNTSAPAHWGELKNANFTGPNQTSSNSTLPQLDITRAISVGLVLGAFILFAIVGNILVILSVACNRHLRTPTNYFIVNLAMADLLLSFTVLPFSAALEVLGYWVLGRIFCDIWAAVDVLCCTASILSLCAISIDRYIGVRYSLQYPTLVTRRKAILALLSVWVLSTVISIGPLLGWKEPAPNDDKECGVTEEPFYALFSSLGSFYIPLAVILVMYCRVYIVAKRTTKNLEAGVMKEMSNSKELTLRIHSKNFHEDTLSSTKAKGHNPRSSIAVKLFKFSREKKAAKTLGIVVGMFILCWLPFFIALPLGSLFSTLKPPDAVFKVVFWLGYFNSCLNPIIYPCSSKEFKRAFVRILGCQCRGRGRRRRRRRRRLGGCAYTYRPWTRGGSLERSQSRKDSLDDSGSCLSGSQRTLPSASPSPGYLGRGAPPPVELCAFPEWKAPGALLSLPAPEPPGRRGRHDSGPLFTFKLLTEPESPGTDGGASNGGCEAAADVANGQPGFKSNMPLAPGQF
The experiment in a line: Activity at Alpha-1B adrenergic receptor.

In data set [12] the target is Histamine H1 receptor (Homo sapiens, UniProt P35367). The experiment in a line: Activity at histamine H1 receptor.
For data set [13], the target named is Voltage-gated inwardly rectifying potassium channel KCNH2 (Homo sapiens, UniProt Q12809). The experiment in a line: Displacement of [3H]dofetilide from human ERG by scintillation proximity assay. On the technique in general: Loss of bound radioactivity is the signal in a displacement assay; it reports binding, not function.

SMILES strings stand for the structures. ≈ marks a conversion by molar mass, not a printed value.

Sequence of D(2) dopamine receptor (P14416 whole entry): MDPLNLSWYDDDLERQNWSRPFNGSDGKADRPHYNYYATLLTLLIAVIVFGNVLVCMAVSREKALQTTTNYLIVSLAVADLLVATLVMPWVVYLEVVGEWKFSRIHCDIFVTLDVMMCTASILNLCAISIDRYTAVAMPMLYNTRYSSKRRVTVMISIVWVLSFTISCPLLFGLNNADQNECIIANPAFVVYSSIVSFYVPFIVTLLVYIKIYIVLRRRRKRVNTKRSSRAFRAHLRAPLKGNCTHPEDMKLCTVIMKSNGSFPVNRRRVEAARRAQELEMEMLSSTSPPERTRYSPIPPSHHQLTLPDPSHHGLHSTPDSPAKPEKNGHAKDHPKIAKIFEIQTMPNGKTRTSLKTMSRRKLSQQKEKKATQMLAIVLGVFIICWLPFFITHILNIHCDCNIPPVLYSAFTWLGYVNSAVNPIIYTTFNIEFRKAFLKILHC
Sequence of D(3) dopamine receptor (P35462 whole entry): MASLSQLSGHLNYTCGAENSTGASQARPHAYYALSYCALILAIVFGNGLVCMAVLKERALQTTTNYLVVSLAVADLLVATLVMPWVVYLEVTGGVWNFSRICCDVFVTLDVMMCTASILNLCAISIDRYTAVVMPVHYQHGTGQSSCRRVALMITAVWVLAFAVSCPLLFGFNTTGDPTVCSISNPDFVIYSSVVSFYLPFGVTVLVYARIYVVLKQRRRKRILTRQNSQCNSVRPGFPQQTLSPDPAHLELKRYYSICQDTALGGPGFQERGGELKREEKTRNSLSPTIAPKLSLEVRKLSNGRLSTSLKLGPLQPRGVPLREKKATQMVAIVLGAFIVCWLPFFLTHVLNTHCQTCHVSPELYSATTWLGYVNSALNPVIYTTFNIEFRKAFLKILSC
Sequence of 5-hydroxytryptamine receptor 1D (P28221 whole entry): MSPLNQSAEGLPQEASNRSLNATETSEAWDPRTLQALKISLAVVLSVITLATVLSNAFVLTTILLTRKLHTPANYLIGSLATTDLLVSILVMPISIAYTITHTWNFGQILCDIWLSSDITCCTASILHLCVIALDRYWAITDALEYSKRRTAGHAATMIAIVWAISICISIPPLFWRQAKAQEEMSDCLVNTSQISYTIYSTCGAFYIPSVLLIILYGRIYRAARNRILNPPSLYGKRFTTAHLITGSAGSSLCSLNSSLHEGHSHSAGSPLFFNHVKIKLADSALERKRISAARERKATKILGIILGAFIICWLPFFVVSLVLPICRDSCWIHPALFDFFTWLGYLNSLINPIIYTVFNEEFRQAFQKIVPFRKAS
Sequence of Cytochrome P450 2D6 (P10635 whole entry): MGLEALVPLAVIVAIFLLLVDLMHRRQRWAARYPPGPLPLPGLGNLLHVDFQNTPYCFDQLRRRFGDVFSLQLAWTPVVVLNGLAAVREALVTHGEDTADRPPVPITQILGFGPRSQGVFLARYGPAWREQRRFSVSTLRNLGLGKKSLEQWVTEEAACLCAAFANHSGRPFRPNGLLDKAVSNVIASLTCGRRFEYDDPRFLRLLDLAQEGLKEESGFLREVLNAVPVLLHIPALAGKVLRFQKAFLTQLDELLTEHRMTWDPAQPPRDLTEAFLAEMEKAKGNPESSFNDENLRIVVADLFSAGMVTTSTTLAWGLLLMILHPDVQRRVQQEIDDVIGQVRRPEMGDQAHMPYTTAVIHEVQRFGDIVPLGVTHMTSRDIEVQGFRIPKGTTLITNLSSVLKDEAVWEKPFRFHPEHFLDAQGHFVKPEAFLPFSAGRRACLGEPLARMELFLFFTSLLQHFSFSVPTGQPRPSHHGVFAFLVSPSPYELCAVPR
Sequence of 5-hydroxytryptamine receptor 2A (P28223 whole entry): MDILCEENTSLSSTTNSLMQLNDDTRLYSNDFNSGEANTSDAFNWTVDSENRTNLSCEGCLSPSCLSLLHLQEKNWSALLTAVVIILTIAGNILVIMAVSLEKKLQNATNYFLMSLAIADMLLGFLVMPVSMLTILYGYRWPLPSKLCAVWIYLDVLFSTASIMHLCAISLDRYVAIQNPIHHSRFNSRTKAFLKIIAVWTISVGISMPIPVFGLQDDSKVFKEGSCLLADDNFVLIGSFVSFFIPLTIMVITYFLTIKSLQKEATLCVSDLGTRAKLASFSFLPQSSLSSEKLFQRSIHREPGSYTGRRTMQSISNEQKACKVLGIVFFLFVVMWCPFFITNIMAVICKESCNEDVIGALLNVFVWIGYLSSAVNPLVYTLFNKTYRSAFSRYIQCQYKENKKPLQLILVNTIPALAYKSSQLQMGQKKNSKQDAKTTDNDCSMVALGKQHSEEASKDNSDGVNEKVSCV
Sequence of Voltage-gated inwardly rectifying potassium channel KCNH2 (Q12809 whole entry): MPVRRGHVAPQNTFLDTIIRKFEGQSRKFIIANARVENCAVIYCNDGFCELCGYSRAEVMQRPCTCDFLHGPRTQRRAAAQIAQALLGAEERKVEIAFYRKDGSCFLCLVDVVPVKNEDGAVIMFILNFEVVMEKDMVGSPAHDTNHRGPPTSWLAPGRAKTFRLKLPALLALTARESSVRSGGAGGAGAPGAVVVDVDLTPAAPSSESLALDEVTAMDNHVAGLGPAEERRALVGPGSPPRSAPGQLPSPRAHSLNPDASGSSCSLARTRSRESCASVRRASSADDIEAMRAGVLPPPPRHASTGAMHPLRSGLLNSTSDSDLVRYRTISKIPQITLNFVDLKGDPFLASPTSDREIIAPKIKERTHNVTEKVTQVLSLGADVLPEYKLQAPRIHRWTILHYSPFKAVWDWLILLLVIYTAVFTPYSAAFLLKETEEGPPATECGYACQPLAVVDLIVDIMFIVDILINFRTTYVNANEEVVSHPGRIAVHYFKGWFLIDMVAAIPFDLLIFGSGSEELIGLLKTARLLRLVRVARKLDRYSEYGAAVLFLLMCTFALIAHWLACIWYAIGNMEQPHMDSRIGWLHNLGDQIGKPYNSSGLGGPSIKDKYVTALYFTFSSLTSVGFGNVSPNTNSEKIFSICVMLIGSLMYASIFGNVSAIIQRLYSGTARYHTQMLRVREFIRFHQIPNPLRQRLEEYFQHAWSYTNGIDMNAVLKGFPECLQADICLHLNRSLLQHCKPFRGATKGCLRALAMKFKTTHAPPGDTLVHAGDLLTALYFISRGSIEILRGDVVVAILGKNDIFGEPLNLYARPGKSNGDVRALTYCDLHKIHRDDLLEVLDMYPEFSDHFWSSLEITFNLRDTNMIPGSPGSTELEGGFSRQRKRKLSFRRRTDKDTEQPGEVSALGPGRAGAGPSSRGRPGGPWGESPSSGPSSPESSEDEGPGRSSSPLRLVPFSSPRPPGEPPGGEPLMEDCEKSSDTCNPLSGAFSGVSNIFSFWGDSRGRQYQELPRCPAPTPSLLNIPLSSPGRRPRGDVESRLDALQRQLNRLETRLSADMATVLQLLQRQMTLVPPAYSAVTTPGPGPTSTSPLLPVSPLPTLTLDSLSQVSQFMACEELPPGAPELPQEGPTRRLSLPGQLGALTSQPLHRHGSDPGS
Sequence of Histamine H1 receptor (P35367 whole entry): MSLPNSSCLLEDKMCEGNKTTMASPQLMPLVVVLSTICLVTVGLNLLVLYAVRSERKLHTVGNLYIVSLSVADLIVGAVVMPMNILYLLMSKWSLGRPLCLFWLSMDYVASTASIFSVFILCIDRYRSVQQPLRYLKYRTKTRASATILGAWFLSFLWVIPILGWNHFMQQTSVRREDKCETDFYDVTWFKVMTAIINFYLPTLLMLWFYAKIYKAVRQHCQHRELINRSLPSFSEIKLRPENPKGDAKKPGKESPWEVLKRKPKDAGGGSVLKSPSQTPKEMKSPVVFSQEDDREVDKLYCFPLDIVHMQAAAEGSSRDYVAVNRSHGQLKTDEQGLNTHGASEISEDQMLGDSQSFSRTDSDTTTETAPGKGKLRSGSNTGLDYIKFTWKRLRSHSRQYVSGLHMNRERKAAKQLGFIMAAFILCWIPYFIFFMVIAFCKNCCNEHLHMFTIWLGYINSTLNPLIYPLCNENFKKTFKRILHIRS

With `O=C1N(CCN2CCCCCC2)CCN1c1cccc(F)c1`, in data set [1], the EC50 (usually the concentration needed to bring the measured effect to its halfway point) was 0.794 nM and the affinity corresponds to a Ki of 2.51 nM. Also, in data set [2], the EC50 was above 3160 nM; the Ki (in general, the dissociation constant of the complex between target and ligand, obtained from inhibition or displacement) was 15.8 nM.

As for `O=C1N(CCN2CCCCCC2)CCN1c1ccc(F)c(Cl)c1`, in data set [1], the EC50 was 10 nM and the Ki was 15.8 nM. Besides, in data set [2], the EC50 is above 3160 nM and the Ki is 25.1 nM.

For the compound `O=C1N(CCN2CCCCCC2)CCN1c1ccc(F)cc1`, in [1], the EC50 was 10 nM and the affinity corresponds to a Ki of 63.1 nM. For the same compound, in data set [2], the EC50 was above 3160 nM and the Ki was 251 nM.

In [1], `O=C1N(CC2CCCCN2)CCN1c1cccc(C(F)(F)F)c1` (stereo not drawn) had an EC50 above 7940 nM and a Ki of 20 nM. Also, in [2], the EC50 is above 3160 nM and the Ki is 0.251 nM.

As to `O=C1N(CC2CCCCN2)CCN1c1cccnc1` (stereo not drawn), in data set [1], the concentration giving a half-maximal response (EC50) was 501 nM and the Ki was above 631 nM. Moreover, in data set [2], the EC50 was above 3160 nM and the inhibition constant (Ki) was above 631 nM.

Turning to `O=C1N(CCN2CCCCCC2)CCN1c1cccnc1`, the EC50 in data set [1] is 7.94 nM; in data set [2], above 3160 nM. Besides, the Ki in [1] is 100 nM; in data set [2], 79.4 nM.

Consider `O=C1N(CC2CCCCN2)CCN1c1cccc(Cl)c1` (stereo not drawn), for which the EC50 in [1] is 0.631 nM; in data set [2], above 3160 nM; in data set [8] it was 794 nM; in [9] it was 501 nM. For the same compound, the Ki was 79.4 nM in [1]; 3.98 nM in data set [2]; above 1580 nM in data set [10]; above 251 nM in data set [11]; above 2510 nM in data set [12]. Besides, the solubility (in general, how much of the substance goes into solution per volume) in data set [3] is 148 µg/mL (≈ 504 µM). Also, in data set [4], the logD – broadly, lipophilicity at a set pH, counting ionised and neutral species – was 1.24. The compound also returned a CL in data set [5] of 23.7 mL/min/g. In data set [6], the CLint scaled (usually a measure of how fast metabolising enzymes remove a compound, apart from limits set by blood flow) stood at 3.4 mL/min/g. Besides, the IC50 (as a rule, the point on the concentration scale where inhibition reaches its midpoint) in data set [7] is 1000 nM; in data set [13], 7940 nM.

Consider `O=C1N(CC2CCNCC2)CCN1c1cccc(Cl)c1`, for which, in data set [1], the EC50 was above 7940 nM and the Ki was above 631 nM. Moreover, in data set [2], the EC50 is above 3160 nM and the Ki was above 631 nM.

Take `CN1CCCCC1CN1CCN(c2cccc(Cl)c2)C1=O` (stereo not drawn): in data set [1], the EC50 was 2.51 nM and the affinity corresponds to a Ki of 15.8 nM. Besides, in [2], the EC50 is above 3160 nM and the Ki was 3.98 nM.

As to `O=C1N(CCN2CCCCCC2)CCN1c1ccc(Cl)cc1`, in [1], the EC50 was 50.1 nM and the Ki was 100 nM. In [2], the EC50 was above 3160 nM and the Ki was 79.4 nM.

For `O=C1N(CCN2CCCCCC2)CCN1c1cccc(Cl)c1`, in data set [1], the EC50 is 1 nM and the Ki is 10 nM. In data set [2], the EC50 is above 3160 nM and the Ki is 5.01 nM.

On to `O=c1n(CCCN2CCCCCC2)ccn1-c1cccc(Cl)c1`, for which, in data set [1], the EC50 was above 7940 nM and the Ki is 631 nM. In addition, in data set [2], the EC50 was above 3160 nM and the Ki was 126 nM.

Consider `Cc1cccc(N2CCN(CCN3CCCCCC3)C2=O)c1`, for which the values for the EC50 in data set [1] and in data set [2] were 10 nM and above 3160 nM, respectively. The Ki in data set [1] was 25.1 nM; in data set [2], 79.4 nM.

In data set [1], `O=C1N(CCN2CCCCCC2)CCN1c1cccc(C(F)(F)F)c1` had an EC50 above 7940 nM and a Ki of 1.58 nM. In addition, in data set [2], the EC50 was above 3160 nM and the inhibition constant Ki is 1 nM.

Take `O=C1N(CCN2CCCCCC2)CCN1c1ccncc1`: the EC50 in [1] and in data set [2] was above 3160 nM in each case. Also, the results for the Ki in data set [1] and in [2] were 631 nM and above 631 nM, respectively.

In [1], `O=C1N(CCN2CCCCCC2)CCN1c1cc(Cl)cc(Cl)c1` gave an EC50 above 7940 nM and a Ki of 0.631 nM. In [2], the half-maximal effective concentration (EC50) is above 3160 nM and the Ki is 1.58 nM.

For `O=c1n(CCN2CCCCCC2)ccn1-c1cccc(Cl)c1`, the EC50 in data set [1] is 126 nM; in data set [2], above 3160 nM. For the same compound, the Ki is 398 nM in data set [1] and above 631 nM in data set [2].

In data set [1], `O=S1(=O)N(CCN2CCCCCC2)CCN1c1cccc(Cl)c1` had an EC50 of 126 nM and a Ki of 200 nM. In data set [2], the EC50 is above 3160 nM and the Ki is 316 nM.

In data set [1], `O=C1N(CC2CCCNC2)CCN1c1cccc(Cl)c1` (stereo not drawn) had an EC50 above 7940 nM and a Ki above 631 nM. In addition, in data set [2], the concentration for a half-maximal effect (EC50) is above 3160 nM and the inhibition constant (Ki) is above 631 nM.

In [1], `Cc1ccc(N2CCN(CCN3CCCCCC3)C2=O)cc1` had an EC50 above 7940 nM and a Ki of 50.1 nM. In [2], the concentration for a half-maximal effect (EC50) is above 3160 nM and the Ki is 126 nM.

`Cc1ccccc1N1CCN(CCN2CCCCCC2)C1=O`: in [1], the EC50 was above 7940 nM and the Ki was above 631 nM. Moreover, in data set [2], the half-maximal effective concentration (EC50) was above 3160 nM and the inhibition constant Ki was above 631 nM.

Consider `COc1cccc(N2CCN(CCN3CCCCCC3)C2=O)c1`, for which, in data set [1], the EC50 is above 7940 nM and the affinity, expressed as Ki, was 39.8 nM. In data set [2], the EC50 is above 3160 nM and the Ki is 50.1 nM.

On to `O=C1N(CCN2CCCCCC2)CCN1c1ccccc1`, for which the concentration for a half-maximal effect (EC50) is 0.631 nM in data set [1] and above 3160 nM in [2]. The Ki was 7.94 nM in data set [1] and 63.1 nM in data set [2].
